Measurements taken from ChEMBL document CHEMBL1137935 (Bioorg Med Chem Lett, 2004).
Each block holds one molecule with its values, some of them ahead of it. Calls of active or inactive are those of the source. The calls are words filed in the database; no cut-off is given here.

Tests used:
[1] = biological target: T1, Adenosine receptor A1 (Cavia porcellus) (UniProt P47745); assay: Binding affinity against adenosine A1 receptor using [3H]CPX in guinea pig DDT membrane; 5855+/-1208
T1 sequence (whole entry): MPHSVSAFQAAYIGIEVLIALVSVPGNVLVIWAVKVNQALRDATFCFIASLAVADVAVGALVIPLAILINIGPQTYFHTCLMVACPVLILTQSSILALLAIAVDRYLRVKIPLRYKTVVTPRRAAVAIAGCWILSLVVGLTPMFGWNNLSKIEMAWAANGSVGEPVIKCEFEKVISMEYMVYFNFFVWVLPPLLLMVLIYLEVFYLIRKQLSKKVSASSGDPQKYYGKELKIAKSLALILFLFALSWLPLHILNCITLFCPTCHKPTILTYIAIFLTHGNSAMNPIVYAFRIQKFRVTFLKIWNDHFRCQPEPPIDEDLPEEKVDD

[2] = biological target: T1, Adenosine receptor A1 (Cavia porcellus); assay: Binding affinity against adenosine A1 receptor using [3H]CCPA in guinea pig DDT membrane; 243+/-107
[3] = biological target: T1, Adenosine receptor A1 (Cavia porcellus); assay: Binding affinity against […] using [35S]GTP-gamma-S, radioligand in guinea pig.; format: functional
[4] = biological target: T1, Adenosine receptor A1 (Cavia porcellus); assay: Binding affinity against adenosine A1 receptor using [3H]CPX in guinea pig DDT membrane; 604+/-241
[5] = biological target: T1, Adenosine receptor A1 (Cavia porcellus); assay: Binding affinity against adenosine A1 receptor using [3H]CPX in guinea pig DDT membrane; 1143+/-426
[6] = biological target: T1, Adenosine receptor A1 (Cavia porcellus); assay: Binding affinity against adenosine A1 receptor using [3H]CCPA in guinea pig DDT membrane; 160+/-41
[7] = biological target: T1, Adenosine receptor A1 (Cavia porcellus); assay: Binding affinity against adenosine A1 receptor using [3H]CPX in guinea pig DDT membrane; 1945+/-1316
[8] = biological target: T1, Adenosine receptor A1 (Cavia porcellus); assay: Binding affinity against adenosine A1 receptor using [3H]CPX in guinea pig DDT membrane; 338+/-98
[9] = biological target: T1, Adenosine receptor A1 (Cavia porcellus); assay: Binding affinity against adenosine A1 receptor using [3H]CCPA in guinea pig DDT membrane; 96+/-11
[10] = biological target: T1, Adenosine receptor A1 (Cavia porcellus); assay: Binding affinity against adenosine A1 receptor using [3H]CCPA in guinea pig DDT membrane; 7.5+/-1.9
[11] = biological target: T1, Adenosine receptor A1 (Cavia porcellus); assay: Binding affinity against adenosine A1 receptor using [3H]CPX in guinea pig DDT membrane; format: cell membranes
[12] = system: Adenosine receptor A1 (Cavia porcellus); assay: Binding affinity against […] using [35S]GTP-gamma-S, in guinea pig; not active
[13] = biological target: T1, Adenosine receptor A1 (Cavia porcellus); assay: Binding affinity against adenosine A1 receptor using [3H]CPX in guinea pig DDT membrane; 614+/-78
[14] = biological target: T1, Adenosine receptor A1 (Cavia porcellus); assay: Binding affinity against adenosine A1 receptor using [3H]CCPA in guinea pig DDT membrane; 102+/-45
[15] = biological target: T1, Adenosine receptor A1 (Cavia porcellus); assay: Binding affinity against adenosine A1 receptor using [3H]CPX in guinea pig DDT membrane; 5497+/-180
[16] = biological target: T1, Adenosine receptor A1 (Cavia porcellus); assay: Binding affinity against adenosine A1 receptor using [3H]CCPA in guinea pig DDT membrane; 971+/-139
[17] = biological target: T1, Adenosine receptor A1 (Cavia porcellus); assay: Binding affinity against adenosine A1 receptor using [3H]CPX in guinea pig DDT membrane; 1666+/-556
[18] = biological target: T1, Adenosine receptor A1 (Cavia porcellus); assay: Binding affinity against adenosine A1 receptor using [3H]CPX in guinea pig DDT membrane; 354+/-113
[19] = biological target: T1, Adenosine receptor A1 (Cavia porcellus); assay: Binding affinity against adenosine A1 receptor using [3H]CCPA in guinea pig DDT membrane; format: cell membranes
[20] = biological target: T1, Adenosine receptor A1 (Cavia porcellus)
[21] = biological target: T1, Adenosine receptor A1 (Cavia porcellus); remark: listed apart in the source
[22] = biological target: T1, Adenosine receptor A1 (Cavia porcellus); remark: listed apart in the source

Structure (SMILES): Cc1ccccc1SC[C@H]1OC(n2cnc3c(NC4CCOC4)ncnc32)[C@H](O)C1O (single isomer, unassigned)
Ki low [5]: 1140 nM
Ki high [6]: 160 nM
efficacy relative to CPA [3]: 81%

Structure (SMILES): OC1[C@@H](O)C(n2cnc3c(NC4CCOC4)ncnc32)O[C@@H]1CSc1nc2ccc(Cl)cc2o1 (single isomer, unassigned)
Ki low [7]: 1940 nM
efficacy relative to CPA [3]: 99%

Structure (SMILES): O[C@@H]1[C@@H](COc2ccccc2F)OC(n2cnc3c(NC4CCCC4)ncnc32)[C@@H]1O (stereo partly specified)
Ki low [11]: 4390 nM
CPA [12]: inactive

Structure (SMILES): Cc1csc(SC[C@H]2OC(n3cnc4c(NC5CCOC5)ncnc43)[C@H](O)C2O)n1 (single isomer, unassigned)
efficacy relative to CPA [3]: 86%
Ki low [11]: > 5000 nM

Structure (SMILES): OC1[C@@H](O)C(n2cnc3c(NC4CCOC4)ncnc32)O[C@@H]1CSc1c(Cl)cccc1Cl (single isomer, unassigned)
Ki low [13]: 614 nM
Ki high [14]: 102 nM
efficacy relative to CPA [3]: 89%

Structure (SMILES): OC1[C@@H](O)[C@H](n2cnc3c(NC4CCOC4)ncnc32)O[C@@H]1CSc1ccc(F)cc1F (single isomer, unassigned; 26)
efficacy relative to CPA [3]: 88%
Ki low [11]: 494 nM

Structure (SMILES): COc1ccc2nc(SC[C@H]3OC(n4cnc5c(NC6CCCC6)ncnc54)[C@H](O)[C@@H]3O)sc2c1 (stereo partly specified)
Ki low [17]: 1670 nM
efficacy relative to CPA [3]: 105%

Structure (SMILES): O[C@@H]1[C@@H](CSc2ccccc2F)OC(n2cnc3c(NC4CCCC4)ncnc32)[C@@H]1O (stereo partly specified)
Ki high [19]: 33 nM
efficacy relative to CPA [3]: 90%
Ki low [20]: 287 nM

Structure (SMILES): OC[C@H]1O[C@@H](n2cnc3c(NC4CCCC4)ncnc32)[C@H](O)[C@@H]1O
Ki high [19]: 0.8 nM
efficacy relative to CPA [3]: 100%
Ki low [21]: 19.5 nM

Now from value to molecule:

Ki low [1]: 5860 nM
Ki high [2]: 243 nM
efficacy relative to CPA [3]: 12%
Structure (SMILES): Cc1cccc(C)c1SC[C@H]1OC(n2cnc3c(NC4CCOC4)ncnc32)[C@H](O)C1O (single isomer, unassigned)

Ki low [4]: 604 nM
efficacy relative to CPA [3]: 70%
Structure (SMILES): OC1[C@@H](O)C(n2cnc3c(NC4CCOC4)ncnc32)O[C@@H]1COc1cccc(F)c1 (single isomer, unassigned)

Ki low [8]: 338 nM
Ki high [9]: 96 nM
efficacy relative to CPA [3]: 74%
Structure (SMILES): OC1[C@@H](O)C(n2cnc3c(NC4CCOC4)ncnc32)O[C@@H]1CSc1ccccc1Cl (single isomer, unassigned)

Ki high [10]: 7.5 nM
efficacy relative to CPA [3]: 98%
Ki low [11]: 165 nM
Structure (SMILES): OC1[C@@H](O)C(n2cnc3c(NC4CCOC4)ncnc32)O[C@@H]1COCc1ccccc1 (single isomer, unassigned)

Ki low [15]: 5500 nM
Ki high [16]: 971 nM
efficacy relative to CPA [3]: 86%
Structure (SMILES): OC1[C@@H](O)[C@H](n2cnc3c(NC4CCOC4)ncnc32)O[C@@H]1CSc1ccc(F)cc1F (single isomer, unassigned; 19)

Ki low [18]: 354 nM
Ki high [19]: 222 nM
efficacy relative to CPA [3]: 94%
Structure (SMILES): COc1ccc2sc(SC[C@H]3OC(n4cnc5c(NC6CCCC6)ncnc54)[C@H](O)[C@@H]3O)nc2c1 (stereo partly specified)

efficacy relative to CPA [3]: 95%
Ki low [22]: 1770 nM
Structure (SMILES): O[C@@H]1[C@@H](CSc2nc3ccccc3s2)OC(n2cnc3c(NC4CCCC4)ncnc32)[C@@H]1O (stereo partly specified)
